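Test compounds were applied to cells in 96-well plates for 48 hours at 5 doses. TGI denotes the concentration required for complete inhibition of growth.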
Columns and labels:
Test in all cases: NCI-60 cell line screen, 48 h
HL-60(TB) leukemia = system: HL-60(TB) leukemia
OVCAR-3 ovarian = system: OVCAR-3 ovarian
SK-MEL-28 melanoma = system: SK-MEL-28 melanoma
A498 renal = system: A498 renal
EKVX NSCLC = system: EKVX NSCLC
SW-620 colon = system: SW-620 colon
ACHN renal = system: ACHN renal
K-562 leukemia = system: K-562 leukemia
HT29 colon = system: HT29 colon
RPMI-8226 leukemia = system: RPMI-8226 leukemia
HOP-18 NSCLC = system: HOP-18 NSCLC
OVCAR-8 ovarian = system: OVCAR-8 ovarian
HOP-62 NSCLC = system: HOP-62 NSCLC
RXF 393 renal = system: RXF 393 renal
HCC-2998 colon = system: HCC-2998 colon
UACC-62 melanoma = system: UACC-62 melanoma
CCRF-CEM leukemia = system: CCRF-CEM leukemia
IGROV1 ovarian = system: IGROV1 ovarian
DLD-1 colon = system: DLD-1 colon
SNB-19 CNS = system: SNB-19 CNS
OVCAR-4 ovarian = system: OVCAR-4 ovarian
MALME-3M melanoma = system: MALME-3M melanoma
786-0 renal = system: 786-0 renal
SNB-75 CNS = system: SNB-75 CNS
TK-10 renal = system: TK-10 renal
SR leukemia = system: SR leukemia
NCI-H23 lung = system: NCI-H23 lung
OVCAR-5 ovarian = system: OVCAR-5 ovarian
UO-31 renal = system: UO-31 renal
M14 melanoma = system: M14 melanoma
SF-539 CNS = system: SF-539 CNS
M19-MEL melanoma = system: M19-MEL melanoma
U251 CNS = system: U251 CNS
HCT-116 colon = system: HCT-116 colon
DMS 114 small cell lung = system: DMS 114 small cell lung
LOX IMVI melanoma = system: LOX IMVI melanoma
UACC-257 melanoma = system: UACC-257 melanoma
NCI-H226 lung = system: NCI-H226 lung
LXFL 529 NSCLC = system: LXFL 529 NSCLC
A549 NSCLC = system: A549 NSCLC
NCI-H460 lung = system: NCI-H460 lung
KM20L2 colon = system: KM20L2 colon
KM12 colon = system: KM12 colon
SF-295 CNS = system: SF-295 CNS
SF-268 CNS = system: SF-268 CNS
MOLT-4 leukemia = system: MOLT-4 leukemia
SK-OV-3 ovarian = system: SK-OV-3 ovarian
SN12C renal = system: SN12C renal
SNB-78 CNS = system: SNB-78 CNS
XF 498 CNS = system: XF 498 CNS

Measured: TGI

Cc1cc2c(cn1)C(=O)OCC2
> 100 µM: HL-60(TB) leukemia | OVCAR-3 ovarian | SK-MEL-28 melanoma | A498 renal | EKVX NSCLC | SW-620 colon | ACHN renal | K-562 leukemia | HT29 colon | RPMI-8226 leukemia | HOP-18 NSCLC | OVCAR-8 ovarian | HOP-62 NSCLC | RXF 393 renal | HCC-2998 colon | UACC-62 melanoma | CCRF-CEM leukemia | IGROV1 ovarian | DLD-1 colon | SNB-19 CNS | OVCAR-4 ovarian | MALME-3M melanoma | 786-0 renal | SNB-75 CNS | TK-10 renal | SR leukemia | NCI-H23 lung | OVCAR-5 ovarian | UO-31 renal | M14 melanoma | SF-539 CNS | M19-MEL melanoma | U251 CNS | HCT-116 colon | DMS 114 small cell lung | LOX IMVI melanoma | UACC-257 melanoma | NCI-H226 lung | LXFL 529 NSCLC | A549 NSCLC | NCI-H460 lung | KM20L2 colon | KM12 colon | SF-295 CNS | SF-268 CNS | MOLT-4 leukemia | SK-OV-3 ovarian | SN12C renal | SNB-78 CNS | XF 498 CNS

From PubChem BioAssay (NCI)
